Consider two molecules from US9428445B2, “Amine compounds and their use as zero or low VOC neutralizers” (ANGUS Chemical Company, priority 2012, dated 2016).

By pKa is commonly meant the negative logarithm of the acid dissociation constant.

Holding throughout (type): physicochemical
Data set [1] in a line: Neutral equivalent by titration. As for the experimental part:
(§1) Also using titration, the neutral equivalent is determined to be 168, which matches the molecule's molecular weight. However, upon inclusion into a paint formulation, slightly less (2%) of this molecule is needed to regulate pH than a control compound (2-amino-2-ethyl-1,3-propanediol (AEPD)) with a measured neutralization equivalent of 124. Thus, the second pKa contributes to pH regulation and contributes to the value of the compound as a neutralizer in paint formulations.

Data set [2] is described as follows: Thermal analysis (TGA). The source says:
(§2) Thus, this material can be classified as a zero VOC using any of the three methods outlined in CARB Method 310.

Data set [3] is described as follows: Acid dissociation constants by standard titration method. As to conditions: read-out: acid dissociation constant (pKa). As to the method:
as §1

The nature of data set [4]: VOC determination per CARB Method 310 (vapor pressure, GC test). As to the method: Zero VOC can be defined in one of three ways according to California Air Resources Board (CARB) Method 310 for VOC determination: the vapor pressure can be below 0.1 mm Hg at 20° C., the boiling point can be above 216° C., or the compound must pass a gas chromatograph test (EPA Method 18, 8240B, 8260B,
as §2

SMILES strings stand for the structures. Structures can show the parent of a compound that is named as a salt. Where two headings read alike, the source gives them in different places. Bounds are passed on as bounds.

`CCC(N)(CO)CO` [AEPD, 2-amino-2-ethyl-1,3-propanediol, reference compound]: the “neutral equivalent / neutralization equivalent” value in data set [1] was determined as 124.
Take `CC(C)(N)CNCC(=O)O` [Example 1, N-[2-(amino)-2-methylpropyl]-glycine (Sodium Salt)]: the boiling point entry in data set [2] is listed as “no boiling point”. The decomposition temperature in data set [2] is > 275 °C. The pKa in data set [3] (primary amine) amounted to 9.9; in data set [3] (sodium carboxylate), 6.1. Further, in data set [4], the vapor pressure result is “no discernable vapor pressure”. The VOC classification result in data set [4] (any of the three methods outlined in CARB Method 310) is “zero VOC”. Also, the “elution on the GC” value in data set [4] (cannot be vaporized, GC testing methods for CARB compliance) is given as “does not elute”. The “neutral equivalent / neutralization equivalent” value in data set [1] is 168.
